# Entries after “also recorded” stand apart in the source; their conditions may differ.
# Tests used:
# [1] = system: arthrodial cartilage of the knee joint; assay: Rabbit knee cartilage injury model: observation by bare eyes and histomorphometry; format: in vivo, New Zealand white rabbits; conditions: intra-articular 250 ppm/kg once every 7 days
# Protocol: (§1) Fifteen (15) healthy adult New Zealand white rabbits were randomly divided into three (3) groups: a normal control group (Group A), a model control group (Group B) and a test group subject to intra-articular injection of a test peptide (Group C), with five (5) rabbits included in each of the groups. Fasting was conducted within four hours before surgical operations. Ketamine (10 mg/kg) and atropine (0.2 mg/kg) were injected in the muscle of each rabbit. After anesthesia took effect, each rabbit was confined to an operating table. An 8 cm-long longitudinal scission was made in the back of each knee before the skin was lifted. From the back of the knee, the articular capsule and synovial were opened. Then, the knee was bent for 90° to expose the cartilage at a lower end of the femur. Two cylindrical cutouts of 3 mm in diameter and 3 mm in depth were made. Coagulation was removed from each of the cutouts. The joint cavity was washed with a sterile saline solution. Stitches were made for each section. After the surgical operation, injection of penicillin was conducted against infection for a week. After five (5) days, each rabbit was able to eat and stand normally.
# (§2) Two (2) weeks after the surgical operation, the rabbits of Group A and Group B were not treated, whereas the rabbits of Group C were subject to intra-articular injection of 250 ppm/kg of pentapeptide-3 KTTKS once for every seven (7) days, and the injection lasted for twelve (12) weeks. Articular injection of 0.5 ml of saline was executed, and then 0.2 ml of synovial liquid was collected. The articular capsule was cut and opened, synovial was removed, and an entire tibial joint was taken. Arthropathy in arthrodial cartilage was observed by bare eyes and also via surgical lens. Slices were taken, dyed by hematoxylin and eosin stain (HE Stain) and toluidine blue, and then observed in an optical microscope.
# [2] = system: NO, SOD and MDA in synovial liquid; assay: Biochemical indicators (NO, SOD, MDA) in synovial liquid of the rabbit model; format: in vivo, New Zealand white rabbits
# From the text: As used in the present invention, all of the methods for measuring SOD, NO and MDA in synovial liquid and collagen and proteoglycan in extracellular matrix of cartilage have been known and conventionally used in the art.
# as §1, §2
# [3] = system: cartilage cells of the growth plate; assay: Cultivated cartilage cells: DNA content, collagen and proteoglycan production; format: cell-based, rabbits; conditions: 250 ppm; samples after 3, 7 and 14 days
# Protocol: Firstly, cartilage cells of the growth plate of the same rabbits were taken and continuously cultivated. The cultivated cells were divided into three groups. In Group I, only 250 ppm of pentapeptide-3 KTTKS was added. In Group II, only 100 ng/ml of collagen was added. In Group III, 250 ppm of pentapeptide-3 KTTKS and 100 ng/ml of collagen were added. A negative control group was also used. After new tissues of cartilage grew at a lower portion of a centrifuge tube, the new tissues were transferred to a 24-well platefor continuing cultivation, wherein the culture medium was replaced for every 2 days. During the cultivation, samples were collected after three (3), seven (7) and fourteen (14) days, and then were analyzed.
# For the histological and histochemical measurements, samples were collected, and HE dying and immunochemical measurement (S-P method) were executed.
# The content of DNA in the cells of cartilage was determined by the method of Hoechst 33258.
# Extracellular matrix of cartilage primarily comprises collagen and proteoglycan composed of glycosaminoglycan and core protein, in addition to water. The content of the matrix and its status of the metabolism were quantitatively analyzed by determining a level of the collagen and proteoglycan in the new tissues of cartilage.
# The synthesis of the collagen of the cartilage is measured by the hydroxyproline method. Because the content of hydroxyproline in the collagen was substantially constant (about 10% by weight), an amount of hydroxyproline could be used to analyze the amount of the collagen of the cartilage by using a commercial kit including the hydroxyproline reagent. The content of the collagen in the samples was calculated.
# [4] = Group C: intra-articular injection of 250 ppm/kg once every 7 days for 12 weeks
# [5] = intra-articular 250 ppm/kg once every 7 days, 12 weeks
substance,measurement,setting,value
pentapeptide-3 KTTKS (printed: Lys-Thr-Thr-Lys-Ser) [pentapeptide Lys-Thr-Thr-Lys-Ser; test peptide injected intra-articularly in Group C],"Histomorphometric observation of repaired tissues (HE stain, toluidine blue)",[1]; after 12 weeks,the repaired tissues were not substantially different from the normal tissues of the knee joint; also recorded: considerably repaired the damaged tissues of cartilage
same,Repair of knee joint injuries observed by bare eyes,[1]; after 12 weeks,the injuries were completely repaired
same,Morphosis of the arthrodial cartilage compared with model control Group B,[1]; 12 weeks,significant improvement
same,MDA level in synovial liquid,[2]; [4],15.23 ± 5.62 c/mol · L^−1
same,NO level in synovial liquid,[2]; [4],25.11 ± 3.65 c/mol · L^−1
same,SOD level in synovial liquid,[2]; [4],6.18 ± 2.17 c/mol · L^−1
same,Change of MDA level in synovial liquid compared with model control Group B,[2]; [5],considerably reduced
same,Change of SOD level in synovial liquid compared with model control Group B,[2]; [5],considerably increased
same,"Content of DNA of the cells of the cartilage versus control group (Hoechst 33258, FIG. 1)",[3],statistically different from that of the control group
same,Hyperosteogeny of the cells of the cartilage,[3],considerable hyperosteogeny
same,"Production of collagen in cartilage tissue (hydroxyproline method, FIG. 2)",[3],considerably increased
same,Production of proteoglycan of cartilage tissue (FIG. 3),[3],considerably increased
